“Also recorded” adds a separate entry of the source. Where a name gives a salt, the structure may show the parent alone. Read-outs that look alike come from different tables or passages of the source.
Key:
[1] = test system: ulcerative colitis patient
[2] = test system: UC patients; conditions: 60 UC patients; cited from earlier work
[3] = cited from earlier work
[4] = test system: human neutrophils; conditions: by preventing up-regulation of CD11b; cited from earlier work
[5] = test system: DSS-induced murine colitis; conditions: cited from earlier work
[6] = test system: patients with IBD, CD, and UC; test: Retrospective propensity-matched cohort study (TriNetX), secondary analysis: A/P vs HAV, HCQ, MES; assay type: in vivo, human; conditions: propensity score matched, within 1 year of exposure
Protocol: Using a multi-institutional database, after 1:1 propensity score matching, we identified adult all-cause IBD patients between 2000 and 2019. […] Outcomes were steroid use, hospitalization, or advanced therapy use within 1 year of exposure. The experiments were repeated in Crohn's disease (CD) and ulcerative colitis (UC) patient cohorts. […]
A retrospective cohort study was performed using a de-identified multi-institutional database with 80 contributing healthcare organizations (HCO), including over 113 million patients (TriNetX Research Network, Cambridge, Massachusetts, date of data access Dec. 7, 2023; IRB exempt). TriNetX regularly aggregates clinical data directly from participating HCOs, primarily in the United States, including extensive data quality and accuracy assessment. Institutional information relating to participating HCOs is also de-identified, however, a typical HCO includes a large academic healthcare center with prevalent capabilities for inpatient services, outpatient services, and specialty care services.
A second analysis was performed to identify all adult patients (aged≥18 years) diagnosed with IBD, including Crohn's disease (CD, ICD-10: K50) and/or ulcerative colitis (UC, ICD-10: K51), between Jan. 1, 2000, and Dec. 31, 2019. […] The index event for all groups was the time of the patient's first prescription.
If there were multiple prescriptions, the index event was defined as the date of the first prescription. Information on duration and dosage was not available.
The outcomes of steroid use (yes/no), hospitalization (yes/no), and advanced therapy use (yes/no) were chosen as they are generally regarded as surrogate markers for IBD activity. Steroid use was defined as a prescription for prednisone, methylprednisolone, or budesonide. All-cause hospitalization was used because TriNetX could not specify a cause for hospitalization. Advanced therapy use was defined as a prescription for adalimumab, certolizumab pegol, golimumab, infliximab, vedolizumab, ustekinumab, tofacitinib, azathioprine, mercaptopurine, or methotrexate. Information on the duration and dosage of outcome drugs was also not available.
This created a potential for bias in that many patients may experience one or more of the measured outcomes (steroid use, hospitalization, or advanced therapy use) within the first year of their diagnosis as standard of care. Indexing those patients to a time other than the time of their original diagnosis, for example, to a time when they received a prescription for a different medication, would mitigate that bias.
Comparators that would not only mitigate the index bias, but also address other potential biases, were specifically chosen. […] HAV is also frequently prescribed for travelers, and there happens to be a high degree of geographic overlap among hepatitis A and malaria-endemic regions.
We performed 1:1 greedy nearest neighbor propensity score matching (caliper of 0.1 standard deviations) to balance cohorts on age, sex, race, comorbid conditions (including cardiovascular, pulmonary, rheumatologic, and renal co-morbidities included in the Charlson Comorbidity Index), presence of prior hospitalization, and use of steroids and IBD advanced therapy (as defined above) to control for baseline disease severity and prior presence of any of the measured outcomes (Table 1, Supplemental Table 1). Differences between groups were calculated using either an independent t-test or a chi-square test as appropriate. Estimates of odds ratios (OR), and 95% confidence intervals (CI) were used to describe the outcome risks. P-values of α<0.05 were considered statistically significant.

[7] = test system: patients with ulcerative colitis; conditions: small human trial; cited from earlier work
[8] = test system: murine colitis; conditions: mouse, in vivo, cited from earlier work
[9] = Crohn's disease, n = 313 per cohort, A/P vs MES
[10] = all-cause IBD, n = 624 per cohort, A/P vs MES
[11] = ulcerative colitis, n = 260 per cohort, A/P vs MES
[12] = Crohn's disease, n = 381 per cohort, A/P vs HCQ
[13] = all-cause IBD, n = 947 per cohort, A/P vs HCQ
[14] = ulcerative colitis, n = 405 per cohort, A/P vs HCQ

C[C@]12C=CC(=O)C=C1CC[C@@H]1[C@@H]2C(=O)C[C@@]2(C)[C@H]1CC[C@]2(O)C(=O)CO [prednisone]
colitis symptoms ([1]; 40 mg daily, after 7 days): no improvement

CO[C@H]1/C=C/O[C@@]2(C)Oc3c(C)c(O)c4c(O)c(c5c(nc6cc(C)ccn65)c4c3C2=O)NC(=O)/C(C)=C\C=C\[C@H](C)[C@H](O)[C@@H](C)[C@@H](O)[C@@H](C)[C@H](OC(C)=O)[C@@H]1C [rifaximin]
colitis symptoms ([1]; 10-day course, 275 mg TID): symptoms persisted

CCN(CC)CCCC(C)Nc1ccnc2cc(Cl)ccc12 (stereo not drawn) [chloroquine]
adverse events compared to sulfasalazine [2]: fewer
remission and response rates compared to sulfasalazine [2]: similar

O=C1C(O)=C([C@H]2CC[C@H](c3ccc(Cl)cc3)CC2)C(=O)c2ccccc21 [Atovaquone, trans-2-[4-(4-chlorophenyl)cyclohexyl]-3-hydroxy-1,4-naphthalenedione]
solubility in water [3]: practically insoluble
human neutrophil chemotaxis [4]: directly suppressed
colitis (DSS-induced murine / experimental) ([5]; by reducing mucosal neutrophil accumulation): attenuates; also recorded: promoted the resolution
S100A9 and CD11b expression on neutrophil surfaces ([5]; mouse, in vivo): reduction

Nc1ccc(O)c(C(=O)O)c1 [MES, mesalamine]
therapeutic effect on colitis ([1]; 4.8 grams generic tablets daily, day 1): no therapeutic effect
adverse event ([1]; in vivo): moderate costochondral chest pain
all-cause hospitalization, number of patients [6, 9]: 53
steroid use, number of patients [6, 9]: 162
advanced therapy use, number of patients [6, 10]: 182
all-cause hospitalization, number of patients [6, 10]: 92
steroid use, number of patients [6, 10]: 307
advanced therapy use, number of patients [6, 11]: 31
all-cause hospitalization, number of patients [6, 11]: 47
steroid use, number of patients [6, 11]: 111

CCN(CCO)CCCC(C)Nc1ccnc2cc(Cl)ccc12 (stereo not drawn) [HCQ, hydroxychloroquine]
efficacy vs placebo in ulcerative colitis [7]: failed to demonstrate superiority over placebo
murine colitis and associated cancer [8]: showed efficacy; also recorded: attenuate murine colitis
murine colitis and associated cancer ([8]; listed as Hydroxychloroquine): decrease the incidence
all-cause hospitalization, number of patients [6, 12]: 43
steroid use, number of patients [6, 12]: 194
advanced therapy use, number of patients [6, 13]: 277
all-cause hospitalization, number of patients [6, 13]: 118
steroid use, number of patients [6, 13]: 485
advanced therapy use, number of patients [6, 14]: 99
all-cause hospitalization, number of patients [6, 14]: 60
steroid use, number of patients [6, 14]: 211

[H]/N=C(\N/C(=N/[H])Nc1ccc(Cl)cc1)NC(C)C [Proguanil hydrochloride, 1-(4-chlorophenyl)-5-isopropyl-biguanide]
solubility in water [3]: sparingly soluble
